Values quoted from earlier work, collected in paper PMC6044708 (ACS Omega, 2016).

Experiments:
Gram-positive bacteria = conditions: comparison in words
S. aureus = conditions: Gram (+), ATCC strain; reference compound
B. subtilis = conditions: Gram (+), ATCC strain; reference compound
E. coli = conditions: Gram (−), ATCC strain; reference compound
P. aeruginosa = conditions: Gram (−), ATCC strain; reference compound

| Substance | activity compared with Arg10–teixobactin (2) (Gram-positive bacteria) | MIC S. aureus (S. aureus) | MIC B. subtilis (B. subtilis) | MIC E. coli (E. coli) | MIC P. aeruginosa (P. aeruginosa) | activity compared with the parent compound teixobactin (1) (Gram-positive bacteria) |
| --- | --- | --- | --- | --- | --- | --- |
| Lys10–teixobactin | more active | – | – | – | – | – |
| Arg10–teixobactin [Arg10–teixobactin (2)] | – | 2 µg/mL | 0.5 µg/mL | 64 µg/mL | no activity | 1 order of magnitude less active |
